Results reported in US4354039A, “Chlorocitric acids” (Hoffmann-La Roche Inc., priority 1981, dated 1982).
Several values for one entry are separate records, joined by “and”; a condition that tells them apart may be missing. Identical values can stand only once. Like-named read-outs stand apart in the source and are kept apart here.

Assays:
[1] = Anorectic activities of stereoisomers, 3-day food consumption and body weight gain (Example 16); assay type: in vivo, Charles River female rats; settings: 1.32 mmoles/kg oral, 3 days
Procedure: Charles River female rats (Charles River Breeding Laboratories, Wilmington, Mass.), weighing 196 to 210 g, were individually housed in wire-bottomed cages in a temperature-regulated (22° C.) light-controlled room (12 hr light, 6 a.m. to 6 p.m. and 12 hr dark, 6 p.m. to 6 a.m.). Animals were fasted 48 hr, then meal-fed a 70% glucose diet from 8 to 11 a.m. Following 5 to 12 days alimentation on the meal-feeding regimen, rats were dosed with the appropriate compounds orally by intubation 1/2 hr before the 3 hr meal for 3 days. The total food consumption and body weight gained during the 3 day period were determined. The control group consisted of 16 rats, while the experimental group consists of 8 rats.

[2] = Body weight and food intake in meal-fed rats, 16 day study (Example 19); assay type: in vivo, Charles River female rats; settings: baseline
Procedure: Two month old Charles River female rats (Charles River Breeding Laboratories, Wilmington, Mass.) were individually housed in wire-bottomedcages in a temperature-regulated (22° C.) light-controlled room (12 hr light, 6 a.m. to 6 p.m. and 12 hr dark, 6 p.m. to 6 a.m.). […] (1) control, (2) (-)-threo-chlorocitric acid (1.0 mmoles/kg, 227 mg/kg) administered by oral intubation 30 min before the 3 hr meal, and (3) (-)-threo-chlorocitric acid (1.1 mmoles/kg, 250 mg/kg) as a dietary admixture for the 3 hr meal. Treatment was continued for 16 days. The amount of body weight gained and food consumed during the study were determined.

[3] = Body weight and food intake in meal-fed rats, oral, 17 day study (Example 21); assay type: in vivo, Charles River female rats; settings: for CBWG, cumulative body weight gain / CFC, cumulative food consumption / FBW, final body weight: 17 days; for IBW, initial body weight: baseline
Procedure: Two month old Charles River female rats (Charles River Breeding Laboratories, Wilmington, Mass.) were individually housed in wire-bottomedcages in a temperature-regulated (22° C.) light-controlled room (12 hr light, 6 a.m. to 6 p.m. and 12 hr dark, 6 p.m. to 6 a.m.). […] On the 8th day, the animals were administered water or (-)-threo-chlorocitric acid at the indicated concentration by oral intubation 30 min before the 3 hr meal. Treatment was continued for 17 days. Food cups were weighed immediately after the meal. The amount of body weight gained and food consumed during the period was determined.

isolated rat hepatocytes = experiment: Fatty acid and cholesterol synthesis and CO2 production in isolated hepatocytes (Example 23); assay type: cell-based, Female Charles River rats; settings: for activity at 2000 µM: Rattus norvegicus, Hepatocyte, 1 h
Procedure: Female Charles River rats were fasted 48 hr, then meal-fed a 1% corn oil, 70% glucose diet for 7 to 14 days from 8 to 11 a.m. The isolated rat hepatocytes were prepared by perfusing the liver in situ. The hepatocytes were incubated in an oscillating water bath at 37° C. for 60 min. […] All incubations were done in triplicate and all experiments were repeated at least twice. […] The contents of the center well were transferred to scintillation counting fluid and ^14 CO2 content was determined. […] The media was then acidified, extracted with hexane, and the extract counted (to determine the rate of lipogenesis). The conversion of ^3 H2 O and [^14 C]alanine into fatty acids or sterols was determined in a PDS/3, Mark II liquid scintillation counting system.

[4] = Food intake in dogs, pyramiding oral doses (Examples 26 and 27); assay type: in vivo, beagle dogs
Procedure: Twelve beagle dogs of both sexes weighing 7.6-12.2 kg were used for this test. The test compounds were contained in gelatin capsules for oral administration to two dogs of each sex. The animals were weighed and food consumption calculated daily excluding weekends throughout the test period. Each animal received 800 grams of diet daily consisting of 400 grams of Wayne pellet dog food mixed with 400 ml distilled water. The animals received pyramiding oral doses of the test compound over the three week period. On Monday and Tuesday of the first week the animals were weighed and food consumption was recorded (control). […] Doses of 30, 100 and 300 mg/kg were administered on Monday, Wednesday and Friday respectively during the second week. A final dose of 1000 mg/kg was administered on Monday of the third week.
Food intake was determined by the procedure at pyramiding doses described in EXAMPLE 26.

[5] = Chow, 0.25 mmoles (57 mg)/kg oral
[6] = Chow, 0.50 mmoles (114 mg)/kg oral
[7] = Chow, 1.00 mmoles (227 mg)/kg oral
[8] = test day 8, dose 100 mg/kg oral
[9] = test day 10, dose 300 mg/kg oral
[10] = test day 13, dose 1000 mg/kg oral

O=C(O)C[C@@](O)(C(=O)O)[C@@H](Cl)C(=O)O [(-)-threo-Chlorocitric acid]
3-Day Body Weight Gain, % of initial body weight [1]: -11.0 % of initial body weight
3-Day Food Consumption, % of control [1]: 37 % of control
IBW, initial body weight ([2]; dietary admixture 1.1 mmoles (250 mg)/kg/day): 192 ± 5 g
IBW, initial body weight ([2]; oral intubation 1.0 mmoles (227 mg)/kg/day): 189 ± 3 g
CBWG, cumulative body weight gain [3, 5]: -1 ± 4 g
CFC, cumulative food consumption [3, 5]: 186 ± 9 g
FBW, final body weight [3, 5]: 213 ± 7 g
IBW, initial body weight [3, 5]: 214 ± 7 g
CBWG, cumulative body weight gain [3, 6]: -32 ± 6 g
CFC, cumulative food consumption [3, 6]: 165 ± 9 g
FBW, final body weight [3, 6]: 177 ± 6 g
IBW, initial body weight [3, 6]: 209 ± 5 g
CBWG, cumulative body weight gain [3, 7]: -30 ± 7 g
CFC, cumulative food consumption [3, 7]: 130 ± 13 g
FBW, final body weight [3, 7]: 176 ± 11 g
IBW, initial body weight [3, 7]: 207 ± 3 g
IBW, initial body weight ([3]; G-70 diet, 0.25 mmoles (57 mg)/kg oral): 198 ± 4 g
IBW, initial body weight ([3]; G-70 diet, 0.50 mmoles (114 mg)/kg oral): 195 ± 4 g
IBW, initial body weight ([3]; G-70 diet, 1.00 mmoles (227 mg)/kg oral): 198 ± 3 g
CO2 Production, [14C]alanine converted (isolated rat hepatocytes; 2 mM, 60 min, 37° C., 2000 µM): 91 % of control
Cholesterol Synthesis, [14C]alanine converted (isolated rat hepatocytes; 2 mM, 60 min, 37° C., 2000 µM): 92 % of control
Fatty Acid Synthesis, 3H2O converted (isolated rat hepatocytes; 2 mM, 60 min, 37° C., 2000 µM): 95 % of control
Fatty Acid Synthesis, [14C]alanine converted (isolated rat hepatocytes; 2 mM, 60 min, 37° C., 2000 µM): 124 % of control and 96 % of control
activity at 2000 µM (isolated rat hepatocytes; 2 mM, 60 min, 37° C., read-out: CO2 Production, [14C]alanine converted): 83%
activity at 2000 µM (isolated rat hepatocytes; 2 mM, 60 min, 37° C., read-out: Cholesterol Synthesis, 3H2O converted): 116%
activity at 2000 µM (isolated rat hepatocytes; 2 mM, 60 min, 37° C., read-out: Cholesterol Synthesis, [14C]alanine converted): 88%
activity at 2000 µM (isolated rat hepatocytes; 2 mM, 60 min, 37° C., read-out: Fatty Acid Synthesis, 3H2O converted): 106%
inhibition of lipid (fatty acid) and cholesterol syntheses (isolated rat hepatocytes; in words): devoid of metabolic activity as an inhibitor of lipid and cholesterol syntheses
Food Consumption ([4]; test day 1, dose 3 mg/kg oral): 450 ± 165 g
Food Consumption, % of control ([4]; test day 1, dose 3 mg/kg oral): 60 % of control
Food Consumption ([4]; test day 2, no dose): 646 ± 83 g
Food Consumption, % of control ([4]; test day 2, no dose): 87 % of control
Food Consumption ([4]; test day 3, dose 10 mg/kg oral): 440 ± 121 g
Food Consumption, % of control ([4]; test day 3, dose 10 mg/kg oral): 59 % of control
Food Consumption ([4]; test day 6, dose 30 mg/kg oral): 406 ± 86 g
Food Consumption, % of control ([4]; test day 6, dose 30 mg/kg oral): 55 % of control
Food Consumption ([4]; test day 7, no dose): 668 ± 115 g
Food Consumption, % of control ([4]; test day 7, no dose): 90 % of control
Food Consumption [4, 8]: 142 ± 38 g
Food Consumption, % of control [4, 8]: 19 % of control
Food Consumption ([4]; test day 9, no dose): 619 ± 62 g
Food Consumption, % of control ([4]; test day 9, no dose): 83 % of control
Food Consumption [4, 9]: 55 ± 39 g
Food Consumption, % of control [4, 9]: 7 % of control
Food Consumption [4, 10]: 56 ± 22 g
Food Consumption, % of control [4, 10]: 8 % of control
Food Consumption ([4]; test day 14, no dose): 439 ± 163 g
Food Consumption, % of control ([4]; test day 14, no dose): 59 % of control
Food Consumption ([4]; test day 15, no dose): 583 ± 149 g
Food Consumption, % of control ([4]; test day 15, no dose): 78 % of control
Food Consumption ([4]; test day 16, no dose): 600 ± 76 g
Food Consumption, % of control ([4]; test day 16, no dose): 81 % of control
Food Consumption ([4]; test day 17, no dose): 677 ± 73 g
Food Consumption, % of control ([4]; test day 17, no dose): 91 % of control
Food Consumption ([4]; test day 21, no dose): 644 ± 100 g
Food Consumption, % of control ([4]; test day 21, no dose): 87 % of control
Food Consumption ([4]; test day 22, no dose): 800 ± 0 g
Food Consumption, % of control ([4]; test day 22, no dose): 108 % of control
Food Consumption ([4]; test day 23, no dose): 596 ± 121 g
Food Consumption, % of control ([4]; test day 23, no dose): 80 % of control
Food Consumption ([4]; test day 24, no dose): 695 ± 79 g
Food Consumption, % of control ([4]; test day 24, no dose): 94 % of control
Food Consumption ([4]; test day 27, no dose): 732 ± 68 g
Food Consumption, % of control ([4]; test day 27, no dose): 99 % of control
Food Consumption ([4]; test day 28, no dose): 775 ± 26 g
Food Consumption, % of control ([4]; test day 28, no dose): 104 % of control
